Reference: patent publication US5240934A, “Quinoline derivatives” (priority 1990, dated 1993)
Where a name gives a salt, the structure may show the parent alone.

What was measured:
[1] = test system: Amnesia Induced by Scopolamine in Rats; assay: Effects on amnesia induced by scopolamine in rats (passive avoidance test); assay type: in vivo, Male Wister rats; settings: p.o., 15 min after scopolamine hydrochloride 0.5 mg/kg i.p.
Procedure: Male Wister rats, 8 week old, were used as subjects. A conventional two-compartment box was used for the passive avoidance test.
Tested compounds were given p.o. 15 minutes after scopolamine hydrochloride (0.5 mg/kg, i.p.). At 15 minutes after the tested compound treatment, scrambled foot-schock (0.5 mA for 3 seconds) was applied to the rat immediately after entry into the dark compartment. Retention was measured 24 hours after the training and was expressed as the mean latency to enter the dark compartment, with a cut-off point at 600 seconds. Percent improvement for the tested compounds was evaluated taking the difference between the retention latency of the untreated group and that of the control group as 100%.

acetylcholinesterase = acetylcholinesterase (Homo sapiens, UniProt P22303); assay: Inhibitive effect on acetylcholinesterase activity (anti-acetylcholinesterase activity); assay type: biochemical
Procedure: Pharmacological action of the compound of the present invention was tested using several compounds prepared in Examples presented hereinafter and 9-amino-1,2,3,4-tetrahydroacridine (Tacrine) as a comparative compound.
Specific activities for the tested compounds were calculated using the following equation. [formula]

[2] = test system: Amnesia Induced by Scopolamine in Mice; assay: Effects on amnesia induced by scopolamine in mice (passive avoidance test); assay type: in vivo, Male ddy mice; settings: p.o., 30 min before scopolamine 1 mg/kg i.p.
Procedure: Male ddy mice, 6-7 week old, were used as subjects. A conventional two-compartment box was used for the passive avoidance test.
Tested compounds were given p.o. 30 minutes before scopolamine (1 mg/kg, i.p.). At 30 minutes after the scopolamine treatment, scrambled foot-schock (2 mA for 3 seconds) was applied to the mouse immediately after entry into the dark compartment. Retention was measured 6 hours after the training and was expressed as the mean latency to enter the dark compartment, with a cut-off point at 300 seconds. Percent improvement for the tested compounds were evaluated taking the difference between the retention latency of the untreated group and that of the control group as 100%.

[3] = test system: senile dementia patients of Alzheimer type; settings: Tacrine and lecithin; The New England Journal of Medicine, 315, 1241 (1986); cited from earlier work

acetylcholinesterase, sequence (P22303 32-614): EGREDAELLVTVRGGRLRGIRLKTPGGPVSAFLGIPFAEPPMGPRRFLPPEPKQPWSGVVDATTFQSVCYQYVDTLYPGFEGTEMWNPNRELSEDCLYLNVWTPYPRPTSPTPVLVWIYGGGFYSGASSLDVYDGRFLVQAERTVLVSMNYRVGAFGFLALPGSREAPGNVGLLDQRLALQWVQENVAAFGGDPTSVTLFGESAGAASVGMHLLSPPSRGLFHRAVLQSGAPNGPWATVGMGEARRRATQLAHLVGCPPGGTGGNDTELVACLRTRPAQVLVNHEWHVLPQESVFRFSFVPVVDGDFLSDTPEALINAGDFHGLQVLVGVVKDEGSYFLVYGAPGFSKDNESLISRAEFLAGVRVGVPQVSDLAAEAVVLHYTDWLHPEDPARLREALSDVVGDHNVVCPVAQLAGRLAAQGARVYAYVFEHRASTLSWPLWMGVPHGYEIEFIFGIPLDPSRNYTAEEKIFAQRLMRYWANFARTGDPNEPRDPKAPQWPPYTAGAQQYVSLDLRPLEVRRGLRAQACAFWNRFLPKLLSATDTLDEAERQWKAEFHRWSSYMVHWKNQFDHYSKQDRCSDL

Compound | Percent Improvement ([1]; 0.03 mg/kg) [%] | Percent Improvement ([1]; 0.1 mg/kg) [%] | Percent Improvement ([1]; 0.3 mg/kg) [%] | Anti-acetylcholinesterase Activity (Specific Activity) (acetylcholinesterase) | Percent Improvement ([2]; 0.01 mg/kg) [%] | Percent Improvement ([2]; 0.3 mg/kg) [%] | Percent Improvement ([2]; 0.03 mg/kg) [%] | Percent Improvement ([2]; 0.1 mg/kg) [%] | Percent Improvement ([2]; 1.0 mg/kg) [%] | improvement in symptoms of senile dementia patients of Alzheimer type [3]
COc1c2c(nc3ccccc13)CN(CCC1CCN(Cc3ccccc3)CC1)C2=O [Compound 67, 9-methoxy-2-(4-(1-benzylpiperidyl)ethyl)-2,3-dihydropyrrolo[3,4-b]quinolin-1-one] | 50.4 | 92.0 | 95.8 | 9.52 |  |  |  |  |  | 
N#Cc1ccccc1NC1=CC(=O)N(CCC2CCN(Cc3ccccc3)CC2)C1 [Compound 2, N-(1-(4-(1-benzylpiperidyl)ethyl)-2-oxo-3-pyrrolin-4-yl)-2-aminobenzonitrile] |  |  |  | 7.7 | 10.0 | 72.8 |  |  |  | 
Nc1c2c(nc3ccccc13)CN(CCC1CCN(Cc3ccccc3)CC1)C2=O [Compound 7, 9-Amino-2-(4-(1-benzylpiperidyl)ethyl)-2,3-dihydropyrrolo-[3,4-b]quinolin-1-one] | 36.1 | 68.9 | 69.8 | 1.94 |  |  | 52.0 | 70.2 |  | 
Nc1c2c(nc3ccccc13)CCC(CCCCC1CCN(Cc3ccccc3)CC1)C2=O (stereo not drawn) [Compound 46, 9-Amino-2-(4-(1-benzylpiperidin-4-yl)butyl)-1,2,3,4-tetrahydroacridin-1-onedihydrochloride] |  | 32.3 | 39.1 | 47.62 |  |  |  |  |  | 
O=C1c2c(nc3ccccc3c2O)CN1CCC1CCN(Cc2ccccc2)CC1 [Compound 61, 9-hydroxy-2-(4-(1-benzylpiperidyl)ethyl)-2,3-dihydropyrrolo[3,4-b]quinolin-1-one] | 33.0 | 86.1 | 86.5 |  |  |  |  |  |  | 
Nc1c2c(nc3ccccc13)CCCC2 [Tacrine, 9-amino-1,2,3,4-tetrahydroacridine, reference compound] |  |  |  |  |  |  |  | 0 | 26.9 | effectiveness
Cl.Cl.Nc1c2c(nc3ccccc13)CCC(CCC1CCN(Cc3ccccc3)CC1)C2=O (stereo not drawn) [Compound 14, 9-amino-2-(2-(1-benzylpiperidin-4-yl)ethyl)-1,2,3,4-tetrahydroacridin-1-one dihydrochloride] |  | 0 | 50.8 | 5.00 |  |  | 50.0 | 71.9 |  | 
N#Cc1ccccc1NC1=CC(=O)N(CCCC2CCN(Cc3ccccc3)CC2)C1 [Compound 3, N-(1-(4-(1-benzylpiperidyl)propyl)-2-oxo-3-pyrrolin-4-yl)-2-aminobenzonitrile] |  |  |  | 13.5 |  | 53.4 |  | 16.0 |  | 
